Tested on: Escherichia coli
Experiment: Biological activity against Escherichia coli N1HJ JC-2 relative to Norfloxacin.
Type: functional

| SMILES | activity relative to norfloxacin |
| --- | --- |
| Cn1cc(C(=O)O)c(=O)c2cc(F)c(N3CCNCC3)cc21 | 0.25 |
| O=C(O)c1cn(Cc2ccccc2)c2cc(N3CCNCC3)c(F)cc2c1=O | 0.25 |
| COc1ccc(-n2cc(C(=O)O)c(=O)c3cc(F)c(N4CCN(C)CC4)cc32)cc1 | 0.004 |
| CN1CCN(c2cc3c(cc2F)c(=O)c(C(=O)O)cn3-c2ccc(O)cc2)CC1 | 4 |
| CN1CCN(c2cc3c(cc2F)c(=O)c(C(=O)O)cn3-c2ccc(F)cc2F)CC1 | 4 |
| CN1CCN(c2cc3c(cc2F)c(=O)c(C(=O)O)cn3-c2ccc(F)cc2)CC1 [DIFLOXACIN] | 4 |
| O=C(O)c1cn(CCF)c2cc(N3CCNCC3)c(F)cc2c1=O | 4 |
| C=Cn1cc(C(=O)O)c(=O)c2cc(F)c(N3CCNCC3)cc21 | 4 |
| CN1CCN(c2cc3c(cc2F)c(=O)c(C(=O)O)cn3-c2ccc(Br)cc2)CC1 | 0.0312 |
| CCCn1cc(C(=O)O)c(=O)c2cc(F)c(N3CCNCC3)cc21 | 0.25 |
| O=C(O)c1cn(C2CC2)c2cc(N3CCNCC3)c(F)cc2c1=O [CIPROFLOXACIN] | 4 |
| CN1CCN(c2cc3c(cc2F)c(=O)c(C(=O)O)c2n3CCS2)CC1 | 4 |
| CN1CCN(c2cc3c(cc2F)c(=O)c(C(=O)O)cn3-c2cccc(F)c2)CC1 | 0.0312 |
| CN1CCN(c2cc3c(cc2F)c(=O)c(C(=O)O)cn3-c2ccccc2)CC1 | 0.25 |
| CNn1cc(C(=O)O)c(=O)c2cc(F)c(N3CCN(C)CC3)cc21 [AMIFLOXACIN] | 4 |
| CN1CCN(c2cc3c(cc2F)c(=O)c(C(=O)O)cn3-c2ccc3c(c2)OCO3)CC1 | 0.25 |
| Cc1ccccc1-n1cc(C(=O)O)c(=O)c2cc(F)c(N3CCN(C)CC3)cc21 | 0.25 |
| C[C@@H]1COc2c(N3CCN(C)CC3)c(F)cc3c(=O)c(C(=O)O)cn1c23 [DEXTROFLOXACINE] | 0.25 |
| O=C(O)c1cn(CCO)c2cc(N3CCNCC3)c(F)cc2c1=O | 0.25 |
| CN(C)CCn1cc(C(=O)O)c(=O)c2cc(F)c(N3CCNCC3)cc21 | 0.0312 |
| Cc1cccc(C)c1-n1cc(C(=O)O)c(=O)c2cc(F)c(N3CCN(C)CC3)cc21 | < 0.004 |
| CN1CCN(c2cc3c(cc2F)c(=O)c(C(=O)O)cn3-c2ccccc2F)CC1 | 0.25 |
| O=C(O)c1c(=O)c2cc(F)c(N3CCNCC3)cc2n2ccsc12 | 4 |
| C[C@H]1COc2c(N3CCN(C)CC3)c(F)cc3c(=O)c(C(=O)O)cn1c23.C[C@H]1COc2c(N3CCN(C)CC3)c(F)cc3c(=O)c(C(=O)O)cn1c23.O [LEVOFLOXACIN] | 4 |
| C=CCn1cc(C(=O)O)c(=O)c2cc(F)c(N3CCNCC3)cc21 | 0.25 |
| CN1CCN(c2cc3c(cc2F)c(=O)c(C(=O)O)cn3-c2ccc(Cl)cc2)CC1 | 0.25 |
| Cc1csc2c(C(=O)O)c(=O)c3cc(F)c(N4CCNCC4)cc3n12 | 4 |
| Cc1ccc(-n2cc(C(=O)O)c(=O)c3cc(F)c(N4CCN(C)CC4)cc32)cc1 | 0.25 |
| CCn1cc(C(=O)O)c(=O)c2cc(F)c(N3CCNCC3)cc21 [NORFLOXACIN] | 4 |
